{
  "source": "patent EP0394112A2",
  "about": "“Use of dipyrido(4,3-b)(3,4-f) indoles for the preparation of medicaments for the treatment of AIDS” (INSTITUT NATIONAL DE LA SANTE ET DE LA RECHERCHE MEDICALE …, priority 1989, dated 1990)",
  "key": {"[1]": {"test_system": "fibroblastes murins NIH - 3T3", "details": "24 h treatment, NIH - 3T3 fibroblasts; read-out: concentrations affecting viabilité et morphologie des cellules de manière irréversible; cited from earlier work"}, "[2]": {"test_system": "lignée cellulaire murine D55", "details": "24 h treatment, D55 cells; read-out: concentrations affecting viabilité et morphologie des cellules de manière irréversible; cited from earlier work"}, "[3]": {"target": "T1, transcriptase inverse du virus HIV 1 (Human immunodeficiency virus type 1 group M subtype B, UniProt P04585)", "T1 construct": "transcriptase inverse du virus HIV 1", "experiment": "Reverse transcriptase assay (direct enzyme inhibition, synthetic primer, 3H-labelled substrate)", "assay_type": "biochemical", "details": "figure 1", "from_the_text": "Le trichlorhydrate de BD 40 (sel ci-après appelé \"BD 40\"), obtenu par réaction de la base BD 40 en phase aqueuse avec une solution aqueuse d'acide chlorhydrique, a été testé dans un premier temps en tant qu'inhibiteur direct sur l'activité enzymatique de la transcriptase inverse du virus HIV 1.\nL'activité enzymatique a été testée en utilisant une amorce synthétique et un substrat radiomarqué au H³ \"in vitro\" en présence de différentes doses du BD 40. La quantité de matériel radiomarqué précipité, exprimée en coups par minute, est proportionnelle à l'activité de la transcriptase inverse.\nLes résultats obtenus figurent sur le graphe de la figure 1, sur laquelle on a porté en ordonnées, la quantité de matériel radiomarqué en coups par minute (RT en cpm) et en abscisses les quantités de BD 40 testées."}, "[4]": {"test_system": "virus HIV 1", "experiment": "Infectivity test on PHA-stimulated peripheral lymphocytes (viral production followed by RT activity)", "assay_type": "cell-based", "details": "12,5 ng/ml", "from_the_text": "Les lymphocytes obtenus après stimulation à la PHA (Phytohémagglutinine) de cellules issues d'une cytaphérèse, ont été infectés par une dilution appropriée de virus HIV 1 afin d'obtenir un pic de production virale aux environs du quinzième jour après infection. Différentes doses du BD 40 ont été ajoutées au milieu de culture au moment de l'infection et pendant toute la culture afin de déterminer les doses toxiques et protectrices.\nPour déterminer le mécanisme d'action du composé, celui-ci a été ajouté à la culture soit pendant une période de préincubation des cellules avant infection, soit pendant toute la période de culture suivant l'infection.\nLe suivi de la production virale des lymphocytes a été réalisé par dosage de l'activité de la transcriptase inverse dans la culture tous les 3 ou 4 jours.\nLes résultats obtenus, avec le BD 40 à la concentration de 12,5 ng/ml, figurent sur les différentes courbes de la figure 2 qui expriment l'activité de la transcriptase inverse (RT en ordonnées) en fonction du temps en jours. • Fig. 2a : BD 40 ajouté pendant la période de préincubation des cellules avant infection. • Fig. 2b : BD 40 ajouté pendant la culture qui suit l'infection. • Fig. 2c : BD 40 ajouté à la culture, uniquement après l'infection. • Fig. 2d : Pas de BD 40. Contrôle HIV 1."}, "[5]": {"target": "T2, réverse transcriptase du virus HIV (Human immunodeficiency virus type 1 group M subtype B, UniProt P04585)", "T2 construct": "mesures de l'activité réverse transcriptase (RT) dans les cellules sanguines; from tissue; host or cells: blood cells of AIDS patients treated with BD 40", "experiment": "Clinical trial: reverse transcriptase activity in blood cells of treated AIDS patients", "assay_type": "in vivo", "description": "Lors d'un essai clinique chez 12 malades souffrant d'un SIDA avéré avec sarcome de Kaposi traités par des injections de trichlorhydrate de BD 40 en perfusion à des doses comprises entre 50 et 300 mg/m²/jour par cures de 3 jours consécutifs à intervalles de 3 semaines, des mesures de l'activité réverse transcriptase (RT) dans les cellules sanguines ont été pratiquées avant administration et aux 4e et 15e jours après le début de chaque cure.\nLa technique de mesure est la même que celle utilisée dans les tests II et III ci-dessus. Les résultats obtenus sont les suivants : - 8 cures sont évaluables à l'égard des critères adoptés, c'est-à-dire dans la mesure où l'activité réverse transcriptase a été mesurable pour le malade considéré et où sa valeur au jour 4 de la cure est encadrée par des valeurs connues au jour 15 de la cure précédente et au jour 15 de la cure considérée; - sur ces 8 cures évaluables, dans 7 cas la valeur au jour 4 est inférieure aux valeurs qui l'encadrent indiquant l'existence d'un inhibition nette de la réverse transcriptase; - sur ces 7 cas, dans 4 d'entre eux l'activité réverse transcriptase est ramenée à 0 (ou à une valeur négligeable, non significativement différente de 0); - sur ces 7 cas, si l'on normalise les valeurs obtenues en les exprimant en % de la valeur la plus élevée mesurée pour le malade considéré, les moyennes obtenues sont les suivantes : - RT au J15 de la cure précédente : 72,3 - RT au J4 de la […] : 9,7 - RT au J15 de la cure considérée : 62,4 l'inhibition est donc très évidente au 4e jour de la cure; - ces 7 cas sont obtenus aux doses suivantes (en mg/m2/administration) 2 fois à 50, 3 fois à 200, 1 fois à 250 et 1 fois à 300."}, "[6]": {"test_system": "virus HIV", "assay_type": "cell-based, virus HIV 1", "details": "for production virale des lymphocytes périphériques infectés: added at the time of infection, figure 3", "from_the_text": "Ce test a été réalisé comme suit.\nLes lymphocytes humains ont été isolés sur gradient de Ficoll à partir du sang périphérique d'un donneur séronégatif. Préalablement au traitement, ils ont été stimulés par la phytohémagglutinine p (PHA-p) (Difco) pendant 3 jours. Ils sont ensuite maintenus en culture dans un milieu RPMI sans glutamine (GIBCO, Réf. 041.01870M, contenant 10 % de sérum de veau fétal (FLOW, Réf. 29.101.711), 1 % de glutamine (GIBCO, Réf. 043.05030H), 1 % d'une solution d'antibiotiques (GIBCO, PSN, Réf. 043.05640H), 10 % d'une solution d'interleukine 2 (BIOTEST, Réf. 81.1020), et […] de polybrène (SIGMA, Réf. 36F.3686 P. 4515).\nDu trichlorhydrate de BD 40 (sel ci-après appelé BD 40) est ajouté aux doses non toxiques de 3,2 jusqu'à 25 ng/ml en même temps que l'infection virale. La production du virus dans le surnageant est mesurée par l'activité réverse transcriptase après concentration des cellules infectées par centrifugation.\nLes résultats obtenus figurent sur les courbes de la figure 3 qui donne l'activité de transcriptase inverse (RT en ordonnées) en fonction du temps pour des quantités données de BD 40."}, "[7]": {"test_system": "virus HIV 1", "assay_type": "cell-based", "from_the_text": "Les macrophages ont été isolés à partir du sang périphérique par adhérence. On les a infectés par du virus HIV 1 (de 5000 à 25000 cpm (RT en cpm par ml)). 3 à 7 jours après, les macrophages ont été éclatés par congélation/décongélation et le virus a été révélé par une coculture avec une lignée lymphoblastoïde (CEM ou lymphocytes du sang périphérique).\nDifférentes doses de trichlorhydrate de BD 40 (ci-après BD 40) ont été testées, le produit étant ajouté au milieu de culture au moment de l'infection."}, "[8]": {"details": "mean of 7 cases, normalised values"}},
  "note": "Like-named read-outs stand apart in the source and are kept apart here.",
  "data": [
    {"smiles": "CCN(CC)CCCNc1nccc2c(C)c3[nH]c4ccncc4c3cc12", "note": "[BD 40]", "values": [
      {"measurement": "MCC", "setting": "[1]", "value": "≥ 100", "unit": "nM"},
      {"measurement": "MCC", "setting": "[2]", "value": "≥ 100", "unit": "nM"},
      {"measurement": "activité de la transcriptase inverse du virus HIV", "setting": "[3]; BD 40 concentrations 1 mg/ml to 50 µg/ml", "value": "totalement inhibée"},
      {"measurement": "activité de l'enzyme", "setting": "[3]; from BD 40 concentration 5 µg/ml", "value": "du même niveau qu'en l'absence d'inhibiteur"},
      {"measurement": "production virale de lymphocytes infectés", "setting": "[4]; added to the culture only after infection (Fig. 2c)", "value": "un pic de production virale qui reste d'un niveau plus faible que le pic obtenu en l'absence d'inhibiteur"},
      {"measurement": "production virale de lymphocytes infectés", "setting": "[4]; present also during the culture after infection (Fig. 2b)", "value": "Le même résultat"},
      {"measurement": "production virale de lymphocytes infectés", "setting": "[4]; present during 1 h preincubation before infection (Fig. 2a)", "value": "inhiber totalement la production virale"},
      {"measurement": "clinical tolerance of the doses", "setting": "[5]; 50, 200, 250 and 300 mg/m2/administration, patients", "value": "cliniquement parfaitement tolérées"},
      {"measurement": "RT au J4 de la cure précédente", "setting": "[5]; [8]", "value": "9,7 % de la valeur la plus élevée mesurée pour le malade considéré"},
      {"measurement": "RT au J15 de la cure considérée", "setting": "[5]; [8]", "value": "62,4 % de la valeur la plus élevée mesurée pour le malade considéré"},
      {"measurement": "RT au J15 de la cure précédente", "setting": "[5]; [8]", "value": "72,3 % de la valeur la plus élevée mesurée pour le malade considéré"},
      {"measurement": "cas où la valeur au jour 4 est inférieure aux valeurs qui l'encadrent (inhibition nette de la réverse transcriptase)", "setting": "[5]; out of 8 evaluable courses, patients with AIDS and Kaposi sarcoma, infusion 50-300 mg/m²/jour, 3-day courses every 3 weeks", "value": 7, "unit": "cas"},
      {"measurement": "cas où l'activité réverse transcriptase est ramenée à 0 (ou à une valeur négligeable)", "setting": "[5]; out of the 7 cases with inhibition", "value": 4},
      {"measurement": "toxicity of doses for the lymphocyte culture", "setting": "[6]", "value": "non toxiques"},
      {"measurement": "production virale des lymphocytes périphériques infectés", "setting": "[6]; 25 ng/ml to 6,25 ng/ml", "value": "inhibition très importante"},
      {"measurement": "production virale des lymphocytes périphériques infectés", "setting": "[6]; 3,12 ng/ml", "value": "un pic de production virale apparait d'un niveau inférieur à celui obtenu en l'absence d'inhibiteur"},
      {"measurement": "virus produit", "setting": "[6]; highest non-toxic doses, up to day 42", "value": "absence totale de virus produit jusqu'au jour 42"},
      {"measurement": "toxicity of doses for the macrophage culture", "setting": "[7]", "value": "non toxiques"},
      {"measurement": "retard d'apparition du virus", "setting": "[7]; 10 and 15 ng/ml, added at the time of infection", "value": 2, "unit": "jours"},
      {"measurement": "réplication du virus", "setting": "[7]; macrophages treated with BD 40, RT activity after coculture", "value": "inhibition partielle"}
    ]}
  ]
}
